Patent US8153556B2, “Synergistic herbicidal compositions containing benfluralin” (Dow AgroSciences LLC, priority 2009, dated 2012)

How the values were obtained:
Experiment in all cases: Pre-emergence field weed control in winter wheat (visual rating)
Assay type in all cases: in vivo
[1] = tested on: ALOMY = Alopecurus agrestis L. (blackgrass)
Procedure: (§1) Soft winter wheat was planted using normal cultural practices in France and Germany in October under normal environmental conditions that allowed rapid germination and growth of wheat and weeds. Fields were prepared as per normal cultural practices, by applying appropriate fertilizers for normal winter wheat growth and yield, working and leveling the ground, and planting at normal time of year using 150 to 170 kg/ha seed with mechanical planters to maximize emergence, growth and yield. Weed infestations varied from 280 to 500 plants per square meter (plants/m^2).
(§2) Treatments consisted of benfluralin applied alone, as well as diflufenican, flufenacet and prosulfocarb applied alone, and in combination with benfluralin, to measure herbicidal weed control and any synergistic interactions. These treatments were applied using backpack sprayers applying spray volumes of 200-250 liters per hectare (L/ha) at a spray pressure of 230 KPA to plots 2.5 meters (m)×8 m, randomized 4 times per treatment. All treatments were applied pre-emergence to the soil, after planting the winter wheat. The pre-emergence treatments were activated with normal rainfall. Treatments were rated on a 0-100% scale, with 0%=no control and 100%=complete control.
(§3) Colby's equation was used to determine the herbicidal effects expected from the mixtures (Colby, S. R. Weeds 1967, 15, 20-22. Calculation of the synergistic and antagonistic response of herbicide combinations).
(§4) The following equation was used to calculate the expected activity of mixtures containing two active ingredients, A and B: Expected=A+B−(A×B/100)
(§5) A=observed efficacy of active ingredient A at the same concentration as used in the mixture.
(§6) B=observed efficacy of active ingredient B at the same concentration as used in the mixture.
(§7) The herbicide tankmix combinations tested, application rates and ratios employed, plant species tested, and results are given in Tables 1 to 6.

[2] = tested on: GERRT = Geranium rotundifolium L. (round-leaved Cranesbill); conditions: benfluralin 1,000 g ai/ha
Procedure: as §1, §2, §3, §4, §5, §6, §7

[3] = tested on: VERHE = Veronica hederifolia L. (ivyleaf speedwell); conditions: Test 2, 150 days after application, benfluralin 1,200 g ai/ha, flufenacet 240 g ai/ha
Procedure: as §1, §2, §3, §4, §5, §6, §7

[4] = tested on: GALAP = Galium aparine L. (cleavers); conditions: benfluralin 1,000 g ai/ha, prosulfocarb 3,000 g ai/ha
Procedure: as §1, §2, §3, §4, §5, §6, §7

[5] = Test 1, 13 days after application, benfluralin 1,200 g ai/ha, flufenacet 240 g ai/ha
[6] = Test 1, 27 days after application, benfluralin 1,000 g ai/ha, diflufenican 100 g ai/ha
[7] = Test 1, 27 days after application, benfluralin 1,000 g ai/ha, prosulfocarb 3,000 g ai/ha
[8] = Test 1, 174 days after application, benfluralin 1,000 g ai/ha, diflufenican 100 g ai/ha
[9] = Test 1, 174 days after application, benfluralin 1,000 g ai/ha, prosulfocarb 3,000 g ai/ha
[10] = Test 1, 236 days after application, benfluralin 1,000 g ai/ha, diflufenican 100 g ai/ha
[11] = Test 1, 236 days after application, benfluralin 1,000 g ai/ha, prosulfocarb 3,000 g ai/ha
[12] = Test 1, 236 days after application, benfluralin 1,200 g ai/ha, flufenacet 240 g ai/ha
[13] = Test 2, 169 days after application, benfluralin 1,000 g ai/ha, diflufenican 100 g ai/ha
[14] = Test 2, 189 days after application, benfluralin 1,000 g ai/ha, prosulfocarb 3,000 g ai/ha
[15] = Test 2, 189 days after application, benfluralin 1,200 g ai/ha, flufenacet 240 g ai/ha
[16] = Test 2, 199 days after application, benfluralin 1,000 g ai/ha, diflufenican 100 g ai/ha
[17] = Test 1, 27 days after application, diflufenican 100 g ai/ha
[18] = Test 1, 27 days after application, prosulfocarb 3,000 g ai/ha
[19] = Test 1, 174 days after application, prosulfocarb 3,000 g ai/ha
[20] = Test 1, 236 days after application, diflufenican 100 g ai/ha
[21] = Test 1, 236 days after application, prosulfocarb 3,000 g ai/ha
[22] = Test 1, 27 days after application
[23] = Test 1, 174 days after application
[24] = Test 1, 236 days after application

Compound	% Visual Weed Control ALOMY Obs [1, 5] [%]	% Visual Weed Control ALOMY Obs [1, 6] [%]	% Visual Weed Control ALOMY Obs [1, 7] [%]	% Visual Weed Control ALOMY Obs [1, 8] [%]	% Visual Weed Control ALOMY Obs [1, 9] [%]	% Visual Weed Control ALOMY Obs [1, 10] [%]	% Visual Weed Control ALOMY Obs [1, 11] [%]	% Visual Weed Control ALOMY Obs [1, 12] [%]	% Visual Weed Control ALOMY Obs [1, 13] [%]	% Visual Weed Control ALOMY Obs [1, 14] [%]	% Visual Weed Control ALOMY Obs [1, 15] [%]	% Visual Weed Control ALOMY Obs [1, 16] [%]	% Visual Weed Control GERRT Obs [2, 17] [%]	% Visual Weed Control GERRT Obs [2, 18] [%]	% Visual Weed Control GERRT Obs [2, 19] [%]	% Visual Weed Control GERRT Obs [2, 20] [%]	% Visual Weed Control GERRT Obs [2, 21] [%]	% Visual Weed Control VERHE Obs [3] [%]	% Visual Weed Control GALAP Obs [4, 22] [%]	% Visual Weed Control GALAP Obs [4, 23] [%]	also measured
CCCCN(CC)c1c([N+](=O)[O-])cc(C(F)(F)F)cc1[N+](=O)[O-] [Benfluralin, N-butyl-N-ethyl-2,6-dinitro-4-(trifluoromethyl)benzenamine]	7	17	17	20	20	23	23	29	0	0	0	0	6	6	7	7	7	43	7	8	% Visual Weed Control GALAP Obs [4, 24]: 7%
O=C(Nc1ccc(F)cc1F)c1cccnc1Oc1cccc(C(F)(F)F)c1 [Diflufenican, N-(2,4-difluorophenyl)-2-[3-(trifluoromethyl)phenoxy]-3-pyridinecarboxamide]	–	19	–	22	–	23	–	–	0	–	–	7	72	–	–	63	–	–	–	–	–
CC(C)N(C(=O)COc1nnc(C(F)(F)F)s1)c1ccc(F)cc1 [Flufenacet, N-(4-fluorophenyl)-N-(1-methylethyl)-2-[[5-(trifluoromethyl)-1,3,4-thiadiazol-2-yl]oxy]acetamide]	26	–	–	–	–	–	–	80	–	–	82	–	–	–	–	–	–	0	–	–	–
CCCN(CCC)C(=O)SCc1ccccc1 [Prosulfocarb, S-(phenylmethyl) dipropylcarbamothioate]	–	–	30	–	33	–	35	–	–	30	–	–	–	21	25	–	27	–	37	39	% Visual Weed Control GALAP Obs [4, 24]: 42%
